Experimental findings from patent US20220213030A1, “AMINOGUANIDINE HYDRAZONES AS RETROMER STABILIZERS USEFUL FOR TREATING NEUROLOGICAL DISEASES” (OSPEDALE SAN RAFFAELE SRL, priority 2019, published 2022) are described below.

Data set [1] relates to Golgi apparatus in Neuro2a cells receiving G93A plasmids. The experiment in a line: Golgi morphology (Golgin97) in Neuro2a cells receiving G93A plasmids. The following applies: 10 μM, 48 hours, G93A-transfected Neuro2a. The class given is cell-based, mouse. An excerpt: Pathological alteration of the Golgi apparatus, such as its fragmentation, has been described in many neurodegenerative disorders including ALS. Neuro2a cells transfected with plasmids encoding the G93A mutant form of the SOD1 show alteration of the Golgi transport (Soo, Halloran et al. 2015). Along the same lines, Golgi fragmentation precedes neuromuscular denervation and axon retraction in ALS mice (van Dis, Kuijpers et al. 2014). We transfected Neuro2a cells with plasmids encoding the G93A mutant form of the human SOD1 gene (hereafter G93A) in presence or in absence of compound 2a (10 μM). Cells were harvested after 48 hours, labelled for Golgin-97 and scored for the distribution of trans-Golgi. […] Of note, the fragmentation of Golgi in cells receiving G93A plasmids was not depending on Golgin97 expression levels (FIG. 3A). We speculated that Golgi fragmentation may exacerbate cell death in this cell line. Therefore, we assayed cell survival of Neuro2a transfected with G93A plasmids. Accordingly, cells were transfected with G93A plasmids or with a control plasmid encoding the LacZ. […]
Golgi morphology was assessed in control or in Neuro2a cells receiving G93A plasmids with or without compound 2a (10 μM) according to published methods (Stafa 2012). […] Golgi subclasses were expressed as a percent of the total number of Golgi scored for each experimental condition.

Data set [2] is described as follows: Brain uptake of compound 2a in C57BL6J mice (LC-MS/MS). The class given is in vivo. The following applies: 10 mg/Kg/day intraperitoneal; 1, 7, 15 and 30 days; saline perfused.
Method: We run a pharmacokinetic assay on C57BL6J mice that received daily intraperitoneal injections of compound 2a (10 mg/Kg/day). Mice were sacrificed after 1, 7, 15 and 30 days saline perfused to avoid the CNS contamination of compounds contained in blood circulation and brains used for the determination of compound 2a levels by mass spectrometry.
Healthy mice were daily injected with vehicle or compound 2a (10 mg/kg) and sacrificed after 1, 7, 15 and 30 days. Upon saline perfusion, brains were dissociated from skulls, carefully weighted and rapidly stored in dry ice. Then, brains (˜400 mg) were checked for the presence of Compound 2a. […] After the extraction, each biological sample was re-suspended in 60 μl of LC/MS grade water and 5 μl analyzed by LC-MS/MS using the UPLC 1290 (Agilent Technologies) coupled to the TripleTOF 5600+ mass spectrometer (SCIEX) in positive mode. A Waters ACQUITY UPLC BEH HILIC column (2.1×10 mm, 1.7 μm) was used for the chromatographic separation through a gradient of solvent A (ACN+0.1% FA) and solvent B (H2O+0.1% FA). Calibration curves were constructed by plotting the peak area versus the corresponding concentrations using MultiQuant 2.1 software (SCIEX).
Data set [3] concerns poly-ubiquitinated proteins. The experiment in a line: Poly-ubiquitinated proteins in lumbar spinal cord of G93A mice. It counts as in vivo, mouse. To be noted: 10 mg/kg, day 100. An excerpt: Ubiquitinated inclusions accumulate in MNs of sALS and fALS patients and in lumbar SCs of ALS mice (Kabashi 2001). High levels of ubiquitinated proteins may represent an overwhelmed response of MNs to protein misfolding and aggregation, as well as a reduction of lysosome functionality. We characterized poly-ubiquitinated proteins in lumbar SCs protein extracts by 10% denaturating PAGE. We included in our experiments protein extracts from Neuro2a cells treated with the proteasome inhibitor Bortezomib (BTZ), able to increase poly-ubiquitination, as an experimental control (FIG. 13A). […] We next scored ubiquitin MFI levels in ventral horn MNs of G93A mice. […] As previously observed in Neuro2a cells, the overexpression of G93A plasmids affects the Golgi apparatus, therefore we asked whether similar alterations can occur in G93A mice by labeling lumbar sections for the cis-Golgi matrix protein GM130.
Lumbar spinal cords were dissected from saline perfused mice and rapidly homogenized in the following lysis buffer: Tris-HCl 10 mM pH 8, EDTA pH 8 1 mM, NaCl 100 mM, NP40 1% and protease inhibitor cocktail (Sigma). […] Protein concentrations were measured by BCA protein assay kit (Thermofisher) according to the manufacturer's recommendations. […] Quantifications were done using the Image Lab 6.0.1 software (Bio-Rad). […]

The subject of the next data set is LC3. The experiment in a line: pHfluorin-LC3 autophagy assay in Neuro2a clone 7B11. The class given is cell-based, mouse. The following applies: 48 hours. As for the experimental part: Besides increasing the functionality of lysosomes we hypothesised that compound 2a could also enhance the autophagy system. Therefore we used a pHfluorin-LC3-based assay to monitor the autophagy process in living Neuro2a cells. We have established in our laboratory a Neuro2a stable cell clone (7B11) that expresses the Microtubule-associated protein 1A/1B-light chain 3 (LC3) coupled with the ph-sensitive GFP/phlourin.
Neuro2a-7B11 cells were incubated with increasing concentrations of compound 2a (0.1-100 μM) as well as with the control molecules Bafilomycin Al and Torin-1. After 48 hours the GFP/phluorin signal, which is ph-sensitive, was measured by flow cytometry and fold changes calculated over untreated cells.
Autophagy assay were done using a stable Neuro2a cell clone expressing the pHluorin-mKate2-tagged human LC3 plasmids, Cell clones were generated according our published methods (Mazzocchi 2016). Upon transfection, cells were selected by 400 μg/mL G418 Disulfate Salt Solution (Sigma-Aldrich, St. Louis, Mo.) and further cloned by limiting dilution. […] Neuro2a 7B11 cells were treated with Compound 2a (0.1-100 μM) for 48 hours then MFI levels of the pHfluorin were measured in living cells by flow cytometry.

For `N=C(N)NN=Cc1cccc(C=NNC(=N)N)c1` [Compound 2a, 1,3-Bis-amino guanidine phenyl hydrazone], the “percentages of cells showing partial or complete fragmentation of the Golgi complex” value in data set [1] was “significantly diminished these percentages”. In addition, in data set [2], the “compound levels in the brain (ability to access the CNS)” value was “significant amounts of compound 2a in the brain”. In data set [3], the “MFI levels of ubiquitin fluorescence in ventral horn MNs” value is “vehicle-treated G93A MNs were higher than levels scored in compound 2a-treated G93A mice” and the “poly-ubiquitination (WB densitometry)” value is “substantially reduced”. For the same compound, in the data set on LC3 (0.1 and 1μM), the “GFP/phluorin signals (fold changes over untreated cells)” value is recorded as “did not change”. Besides, the “GFP/phluorin fluorescence levels (fold changes over untreated cells)” value with LC3 (10 and 100 μM) is recorded as “significant reduction of fluorescence levels”.
